Reference: US20080009418A1, “Selective Inhibitors” (Alchemia LTD., priority 2004, published 2008)

What was measured:
[1] = biological target: T1, Human neuropeptide Y (NPY-Y1) (Homo sapiens, UniProt P25929); experiment: Radioligand binding, human neuropeptide Y NPY-Y1 membranes, FlashPlate, [125I]-PYY; conditions: compound at 10 μM, [125I]-PYY
T1 construct: purchased Perkin Elmer Biosignal
T1 sequence (P25929 1-384): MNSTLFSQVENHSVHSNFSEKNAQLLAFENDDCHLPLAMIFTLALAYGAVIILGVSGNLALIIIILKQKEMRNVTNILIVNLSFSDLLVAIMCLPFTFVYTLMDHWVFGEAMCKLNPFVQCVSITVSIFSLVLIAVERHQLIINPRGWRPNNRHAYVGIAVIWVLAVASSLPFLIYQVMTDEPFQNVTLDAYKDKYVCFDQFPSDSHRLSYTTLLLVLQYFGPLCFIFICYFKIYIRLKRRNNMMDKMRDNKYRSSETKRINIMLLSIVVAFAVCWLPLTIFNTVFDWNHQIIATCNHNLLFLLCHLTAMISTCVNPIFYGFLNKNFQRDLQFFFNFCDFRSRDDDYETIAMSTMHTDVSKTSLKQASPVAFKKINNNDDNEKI
Summary of the method: (§1)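 Cloned human receptor membranes were coated onto FlashPlate wells and incubated with radioligand and compound (added from a 0.5 mM DMSO daughter plate) for 1 hour at room temperature in the dark. Scintillation counting gave percent inhibition, with DMSO defining total and reference ligand defining non-specific binding.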

Human μ-opioid (MOP) = biological target: T2, Human μ-opioid (MOP) (Homo sapiens, UniProt P35372); experiment: Radioligand binding, human μ-opioid (MOP) membranes, FlashPlate, [3H]-Naloxone; conditions: compound at 10 μM, [3H]-Naloxone
T2 construct: purchased Perkin Elmer Biosignal
T2 sequence (P35372 whole entry): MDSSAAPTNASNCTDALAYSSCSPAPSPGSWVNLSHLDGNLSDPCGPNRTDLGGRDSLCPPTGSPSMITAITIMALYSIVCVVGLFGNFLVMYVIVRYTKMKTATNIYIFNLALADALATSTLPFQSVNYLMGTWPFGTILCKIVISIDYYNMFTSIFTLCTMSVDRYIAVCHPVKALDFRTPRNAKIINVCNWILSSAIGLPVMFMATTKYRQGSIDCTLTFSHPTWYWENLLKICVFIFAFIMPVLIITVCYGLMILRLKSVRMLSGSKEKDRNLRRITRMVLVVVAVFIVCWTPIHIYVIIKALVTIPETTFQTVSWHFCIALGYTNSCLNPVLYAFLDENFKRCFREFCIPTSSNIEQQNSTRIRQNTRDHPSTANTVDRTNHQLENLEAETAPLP
Summary of the method: as §1

Human Melanocortin (MC3) = biological target: T3, Human Melanocortin (MC3) (Homo sapiens, UniProt P41968); experiment: Radioligand binding, human melanocortin MC3 membranes, FlashPlate, [125I]-NDP-αMSH; conditions: compound at 10 μM, [125I]-NDP-αMSH
T3 construct: purchased Perkin Elmer Biosignal
T3 sequence (P41968 whole entry): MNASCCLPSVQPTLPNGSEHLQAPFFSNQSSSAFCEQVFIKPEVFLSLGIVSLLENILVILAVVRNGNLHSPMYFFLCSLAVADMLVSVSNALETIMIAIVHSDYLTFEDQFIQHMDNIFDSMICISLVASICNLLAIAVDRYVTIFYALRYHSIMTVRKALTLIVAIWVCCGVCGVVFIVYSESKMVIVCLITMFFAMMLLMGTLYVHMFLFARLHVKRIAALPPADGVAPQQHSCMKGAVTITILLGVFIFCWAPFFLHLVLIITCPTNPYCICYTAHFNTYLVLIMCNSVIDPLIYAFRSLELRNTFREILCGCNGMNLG
Summary of the method: as §1

Human opioid (ORL1) = biological target: T4, Human opioid (ORL1) (Homo sapiens, UniProt P41146); experiment: Radioligand binding, human opioid ORL1 membranes, FlashPlate, [125I]-Nociceptin; conditions: compound at 10 μM, [125I]-Nociceptin
T4 construct: purchased Perkin Elmer Biosignal
T4 sequence (P41146 whole entry): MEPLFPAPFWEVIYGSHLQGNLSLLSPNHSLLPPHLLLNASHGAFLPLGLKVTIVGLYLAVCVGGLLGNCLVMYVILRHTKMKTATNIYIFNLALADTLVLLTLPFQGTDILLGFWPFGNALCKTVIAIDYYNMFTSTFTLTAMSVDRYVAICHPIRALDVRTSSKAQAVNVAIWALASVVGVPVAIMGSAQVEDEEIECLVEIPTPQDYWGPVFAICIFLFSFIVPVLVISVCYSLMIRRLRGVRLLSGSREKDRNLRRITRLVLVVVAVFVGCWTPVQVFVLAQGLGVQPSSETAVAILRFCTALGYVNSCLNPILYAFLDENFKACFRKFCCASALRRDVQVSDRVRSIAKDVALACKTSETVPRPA
Summary of the method: as §1

Human Melanocortin (MC4) = biological target: T5, Human Melanocortin (MC4) (Homo sapiens, UniProt P32245); experiment: Radioligand binding, human melanocortin MC4 membranes, FlashPlate, [125I]-NDP-αMSH; conditions: compound at 10 μM, [125I]-NDP-αMSH
T5 construct: purchased Perkin Elmer Biosignal
T5 sequence (P32245 whole entry): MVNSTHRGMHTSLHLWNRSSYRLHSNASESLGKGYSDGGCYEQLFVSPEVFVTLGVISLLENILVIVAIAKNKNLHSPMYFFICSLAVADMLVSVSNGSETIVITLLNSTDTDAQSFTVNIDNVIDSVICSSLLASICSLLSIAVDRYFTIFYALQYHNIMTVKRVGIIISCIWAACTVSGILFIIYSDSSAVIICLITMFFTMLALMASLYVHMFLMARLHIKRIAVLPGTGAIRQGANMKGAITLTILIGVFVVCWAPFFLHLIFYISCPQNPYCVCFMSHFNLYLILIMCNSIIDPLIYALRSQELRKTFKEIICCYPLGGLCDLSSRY
Summary of the method: as §1

Human melanocortin (MC5) = biological target: T6, Human melanocortin (MC5) (Homo sapiens, UniProt P33032); experiment: Radioligand binding, human melanocortin MC5 membranes, FlashPlate, [125I]-NDP-αMSH; conditions: compound at 10 μM, [125I]-NDP-αMSH
T6 construct: purchased Perkin Elmer Biosignal
T6 sequence (P33032 whole entry): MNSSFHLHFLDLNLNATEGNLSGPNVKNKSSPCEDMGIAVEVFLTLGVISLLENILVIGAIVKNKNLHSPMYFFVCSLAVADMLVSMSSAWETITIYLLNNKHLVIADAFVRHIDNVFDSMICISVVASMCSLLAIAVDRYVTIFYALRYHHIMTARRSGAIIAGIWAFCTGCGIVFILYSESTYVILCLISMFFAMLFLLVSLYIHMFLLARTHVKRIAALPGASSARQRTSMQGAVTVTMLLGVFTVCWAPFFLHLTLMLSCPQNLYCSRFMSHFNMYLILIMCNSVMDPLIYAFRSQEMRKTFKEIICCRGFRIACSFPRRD
Summary of the method: as §1

Human δ-opioid (DOP) = biological target: T7, Human δ-opioid (DOP) (Homo sapiens, UniProt P41143); experiment: Radioligand binding, human δ-opioid (DOP) membranes, FlashPlate, [3H]-Bremazocine; conditions: compound at 10 μM, [3H]-Bremazocine
T7 construct: purchased Perkin Elmer Biosignal
T7 sequence (P41143 whole entry): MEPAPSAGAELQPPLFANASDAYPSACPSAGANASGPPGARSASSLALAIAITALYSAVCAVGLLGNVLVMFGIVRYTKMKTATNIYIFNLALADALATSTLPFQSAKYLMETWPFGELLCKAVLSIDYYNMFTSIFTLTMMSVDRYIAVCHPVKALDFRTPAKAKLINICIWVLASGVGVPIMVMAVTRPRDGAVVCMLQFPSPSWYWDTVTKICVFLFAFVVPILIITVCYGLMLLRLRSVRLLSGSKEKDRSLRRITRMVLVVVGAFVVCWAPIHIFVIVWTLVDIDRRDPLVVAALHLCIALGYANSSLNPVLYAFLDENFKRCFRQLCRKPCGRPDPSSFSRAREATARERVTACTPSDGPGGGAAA
Summary of the method: as §1

Human neurokinin (NK1) = biological target: T8, Human neurokinin (NK1) (Homo sapiens, UniProt P25103); experiment: Radioligand binding, human neurokinin NK1 membranes, filtration, [125I]-Substance P; conditions: compound at 10 μM, [125I]-Substance P
T8 construct: purchased Perkin Elmer Biosignal
T8 sequence (P25103 whole entry): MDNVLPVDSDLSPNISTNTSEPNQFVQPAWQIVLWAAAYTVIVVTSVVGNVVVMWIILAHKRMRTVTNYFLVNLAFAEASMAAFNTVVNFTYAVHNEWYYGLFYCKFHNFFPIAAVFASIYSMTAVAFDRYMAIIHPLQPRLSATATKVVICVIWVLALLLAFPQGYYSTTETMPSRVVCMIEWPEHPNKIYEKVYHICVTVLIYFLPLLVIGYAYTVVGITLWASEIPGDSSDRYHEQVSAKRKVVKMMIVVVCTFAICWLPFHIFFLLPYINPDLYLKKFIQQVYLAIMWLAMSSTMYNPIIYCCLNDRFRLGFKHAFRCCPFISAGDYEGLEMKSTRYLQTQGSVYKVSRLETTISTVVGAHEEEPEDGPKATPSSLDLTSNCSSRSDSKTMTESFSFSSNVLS
Summary of the method: (§2)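 Filtration binding on cloned human receptor membranes (1 Unit/well), [125I]-Substance P for NK1 and [3H]-Diprenorphine for KOP, 1 h at room temperature. Filters PEI-presoaked, washed with cold 50 mM Tris-HCl pH 7.4, counted by scintillation; percent inhibition calculated, reference ligand defining non-specific binding.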

[2] = biological target: T9, Human melanin-concentrating hormone (MCH1) (Homo sapiens, UniProt Q99705); experiment: Radioligand binding, human melanin-concentrating hormone MCH1 membranes, FlashPlate, [125I]-S36057; conditions: compound at 10 μM
T9 construct: purchased Perkin Elmer Biosignal
T9 sequence (Q99705 whole entry): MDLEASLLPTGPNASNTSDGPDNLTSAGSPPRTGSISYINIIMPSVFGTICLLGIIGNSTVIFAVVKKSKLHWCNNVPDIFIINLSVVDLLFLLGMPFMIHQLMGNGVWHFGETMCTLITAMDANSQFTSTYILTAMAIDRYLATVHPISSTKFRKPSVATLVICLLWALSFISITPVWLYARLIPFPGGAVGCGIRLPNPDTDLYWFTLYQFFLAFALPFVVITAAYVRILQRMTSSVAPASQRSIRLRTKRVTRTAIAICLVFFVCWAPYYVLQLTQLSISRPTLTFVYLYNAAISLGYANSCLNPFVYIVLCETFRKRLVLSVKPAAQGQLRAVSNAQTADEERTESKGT
Summary of the method: as §1

Human κ-Opioid (KOP) = biological target: T10, Human κ-Opioid (KOP) (Homo sapiens, UniProt P41145); experiment: Radioligand binding, human κ-opioid (KOP) membranes, filtration, [3H]-Diprenorphine; conditions: compound at 10 μM, [3H]-Diprenorphine
T10 construct: purchased Perkin Elmer Biosignal
T10 sequence (P41145 whole entry): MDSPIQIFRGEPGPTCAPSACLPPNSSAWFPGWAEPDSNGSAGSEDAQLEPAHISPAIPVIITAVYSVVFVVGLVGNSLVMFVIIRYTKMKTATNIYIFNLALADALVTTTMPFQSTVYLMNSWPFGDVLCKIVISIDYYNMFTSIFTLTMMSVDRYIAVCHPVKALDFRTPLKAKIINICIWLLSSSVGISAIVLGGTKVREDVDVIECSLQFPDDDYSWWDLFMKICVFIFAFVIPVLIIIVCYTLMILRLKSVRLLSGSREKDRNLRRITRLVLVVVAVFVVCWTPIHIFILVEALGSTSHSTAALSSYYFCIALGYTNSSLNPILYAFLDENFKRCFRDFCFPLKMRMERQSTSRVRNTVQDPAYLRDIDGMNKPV
Summary of the method: as §2

Mouse urotensin (mUR2) = biological target: T11, Mouse urotensin (mUR2) (Mus musculus, UniProt Q8VIH9); experiment: Radioligand binding, mouse urotensin mUR2 membranes, FlashPlate, [125I]-Urotensin II; conditions: compound at 10 μM, [125I]-Urotensin II
T11 construct: purchased Perkin Elmer Biosignal
T11 sequence (Q8VIH9 1-385): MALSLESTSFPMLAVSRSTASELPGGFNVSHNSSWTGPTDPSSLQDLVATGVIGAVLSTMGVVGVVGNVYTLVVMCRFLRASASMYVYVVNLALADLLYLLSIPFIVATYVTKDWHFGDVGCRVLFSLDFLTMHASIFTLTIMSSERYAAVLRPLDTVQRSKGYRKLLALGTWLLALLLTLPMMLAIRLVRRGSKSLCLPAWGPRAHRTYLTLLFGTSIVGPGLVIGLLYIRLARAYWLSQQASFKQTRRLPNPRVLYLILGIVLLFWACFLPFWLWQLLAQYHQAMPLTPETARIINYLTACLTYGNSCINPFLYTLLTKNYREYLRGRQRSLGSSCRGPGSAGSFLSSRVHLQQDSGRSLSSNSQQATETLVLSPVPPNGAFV
Summary of the method: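 Cloned mouse urotensin (mUR2) receptor membranes from Perkin Elmer Biosignal were immobilized in FlashPlate microplates using a proprietary coating. Each well got 19.5 μl buffer, then 0.5 μl of DMSO, reference ligand, or compound. Adding 5 μl of [125I]-Urotensin II, diluted to 5× final concentration in binding buffer, started binding. Plates were sealed with TopSeal-A and incubated 1 hour at room temperature in the dark. Wells were counted for 30 seconds each on a TopCount after a 60-second delay, and percentage inhibition was calculated.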

[3] = [125I]-S36057, human MCH1 membranes

Compound | A9: inhibition of radioligand binding ([1]; human NPY-Y1 membranes) | A7: inhibition of radioligand binding (Human μ-opioid (MOP); human MOP membranes) | A3: inhibition of radioligand binding (Human Melanocortin (MC3); human MC3 membranes, 10 µM) | A4: inhibition of radioligand binding (Human Melanocortin (MC4); human MC4 membranes, 10 µM) | A5: inhibition of radioligand binding (Human melanocortin (MC5); human MC5 membranes) | A1: inhibition of radioligand binding (Human δ-opioid (DOP); human DOP membranes) | A8: inhibition of radioligand binding (Human neurokinin (NK1); human NK1 membranes) | A6: inhibition of radioligand binding [2, 3] | A2: inhibition of radioligand binding (Human κ-Opioid (KOP); human KOP membranes) | A11: inhibition of radioligand binding (Mouse urotensin (mUR2); mouse mUR2 membranes) | A9: inhibition of radioligand binding ([1]; FlashPlate) | A7: inhibition of radioligand binding (Human μ-opioid (MOP); FlashPlate) | A3: inhibition of radioligand binding (Human Melanocortin (MC3); FlashPlate) | A10: inhibition of radioligand binding (Human opioid (ORL1); FlashPlate) | A4: inhibition of radioligand binding (Human Melanocortin (MC4); FlashPlate) | A5: inhibition of radioligand binding (Human melanocortin (MC5); FlashPlate) | A1: inhibition of radioligand binding (Human δ-opioid (DOP); FlashPlate) | A8: inhibition of radioligand binding (Human neurokinin (NK1); filtration) | A6: inhibition of radioligand binding ([2]; [125I]-S36057, FlashPlate) | A2: inhibition of radioligand binding (Human κ-Opioid (KOP); filtration) | also measured
NCCCC(=O)NC1C(OCc2ccc3ccccc3c2)OC(COCc2ccc(Cl)cc2)C(O)C1OCc1ccccc1 (single isomer, unassigned) [compound 469] | − (“−” indicates less than 50% inhibition at 10 μM) | − (“−” indicates less than 50% inhibition at 10 μM) | − (“−” indicates less than 50% inhibition at 10 μM) | + (“+” indicates greater than 50% inhibition at 10 μM) | + (“+” indicates greater than 50% inhibition at 10 μM) | − (“−” indicates less than 50% inhibition at 10 μM) | + (“+” indicates greater than 50% inhibition at 10 μM) | − (“−” indicates less than 50% inhibition at 10 μM) | − (“−” indicates less than 50% inhibition at 10 μM) | − (“−” indicates less than 50% inhibition at 10 μM) |  |  |  |  |  |  |  |  |  |  | A10: inhibition of radioligand binding (Human opioid (ORL1); human ORL1 membranes, 10 µM): − (“−” indicates less than 50% inhibition at 10 μM)
CSC1OC(COCc2ccc(-c3ccccc3)cc2)C(O)C(OCc2ccccc2)C1NC(=O)CCN (stereo not shown) [compound 256] |  |  |  |  |  |  |  |  |  |  | − (“−” indicates less than 50% inhibition at 10 μM) | − (“−” indicates less than 50% inhibition at 10 μM) | − (“−” indicates less than 50% inhibition at 10 μM) | − (“−” indicates less than 50% inhibition at 10 μM) | − (“−” indicates less than 50% inhibition at 10 μM) | − (“−” indicates less than 50% inhibition at 10 μM) | − (“−” indicates less than 50% inhibition at 10 μM) | + (“+” indicates greater than 50% inhibition at 10 μM) | − (“−” indicates less than 50% inhibition at 10 μM) | − (“−” indicates less than 50% inhibition at 10 μM) | A11: inhibition of radioligand binding (Mouse urotensin (mUR2); FlashPlate): − (“−” indicates less than 50% inhibition at 10 μM)
CSC1OC(COCc2ccccc2)C(O)C(OCc2ccc(Cl)cc2)C1NC(=O)CCN (stereo not shown) [compound 266] |  |  |  |  |  |  |  |  |  |  | − (“−” indicates less than 50% inhibition at 10 μM) | − (“−” indicates less than 50% inhibition at 10 μM) | − (“−” indicates less than 50% inhibition at 10 μM) | − (“−” indicates less than 50% inhibition at 10 μM) | − (“−” indicates less than 50% inhibition at 10 μM) | − (“−” indicates less than 50% inhibition at 10 μM) | − (“−” indicates less than 50% inhibition at 10 μM) | + (“+” indicates greater than 50% inhibition at 10 μM) | − (“−” indicates less than 50% inhibition at 10 μM) | − (“−” indicates less than 50% inhibition at 10 μM) | A11: inhibition of radioligand binding (Mouse urotensin (mUR2); FlashPlate): − (“−” indicates less than 50% inhibition at 10 μM)
NCCC(=O)NC1C(OCc2ccccc2)OC(COCc2ccc3ccccc3c2)C(O)C1OCc1ccc(Cl)cc1 (stereo not shown) [compound 364] |  |  |  |  |  |  |  |  |  |  |  |  |  |  |  |  |  |  |  |  | A9: inhibition of radioligand binding, human neuropeptide Y (NPY-Y1) [1]: − (“−” indicates less than 50% inhibition at 10 μM); A7: inhibition of radioligand binding, human μ-opioid (MOP) (Human μ-opioid (MOP)): − (“−” indicates less than 50% inhibition at 10 μM); A3: inhibition of radioligand binding, human melanocortin (MC3) (Human Melanocortin (MC3)): + (“+” indicates greater than 50% inhibition at 10 μM); A10: inhibition of radioligand binding, human opioid (ORL1) (Human opioid (ORL1)): − (“−” indicates less than 50% inhibition at 10 μM); A4: inhibition of radioligand binding, human melanocortin (MC4) (Human Melanocortin (MC4)): + (“+” indicates greater than 50% inhibition at 10 μM); A5: inhibition of radioligand binding, human melanocortin (MC5) (Human melanocortin (MC5)): + (“+” indicates greater than 50% inhibition at 10 μM); A1: inhibition of radioligand binding, human δ-opioid (DOP) (Human δ-opioid (DOP)): − (“−” indicates less than 50% inhibition at 10 μM); A8: inhibition of radioligand binding, human neurokinin (NK1) (Human neurokinin (NK1)): + (“+” indicates greater than 50% inhibition at 10 μM); A6: inhibition of radioligand binding, human melanin-concentrating hormone (MCH1) ([2]; [125I]-S36057): − (“−” indicates less than 50% inhibition at 10 μM); A2: inhibition of radioligand binding, human κ-opioid (KOP) (Human κ-Opioid (KOP)): − (“−” indicates less than 50% inhibition at 10 μM); A11: inhibition of radioligand binding, mouse urotensin (mUR2) (Mouse urotensin (mUR2)): − (“−” indicates less than 50% inhibition at 10 μM)
NCCC(=O)N[C@H]1C(OCc2ccc3ccccc3c2)O[C@H](COCc2ccc(Cl)cc2)[C@@H](O)[C@@H]1OCc1ccc(Cl)cc1 (stereo partly shown) [compound 440] | − (“−” indicates less than 50% inhibition at 10 μM) | − (“−” indicates less than 50% inhibition at 10 μM) | − (“−” indicates less than 50% inhibition at 10 μM) | − (“−” indicates less than 50% inhibition at 10 μM) | + (“+” indicates greater than 50% inhibition at 10 μM) | − (“−” indicates less than 50% inhibition at 10 μM) | + (“+” indicates greater than 50% inhibition at 10 μM) | + (“+” indicates greater than 50% inhibition at 10 μM) | − (“−” indicates less than 50% inhibition at 10 μM) | − (“−” indicates less than 50% inhibition at 10 μM) |  |  |  |  |  |  |  |  |  |  | A10: inhibition of radioligand binding (Human opioid (ORL1); human ORL1 membranes): − (“−” indicates less than 50% inhibition at 10 μM)
